Test results: patent publication US20140088144A1, “INHIBITING MICROBIAL INFECTIONS” (THE UNIVERSITY OF KANSAS, priority 2012, published 2014)

Tests used:
[1] = target: T1, RhaS(163-278) (RhaS DNA-binding domain) (Escherichia coli, UniProt P09377); assay: In vivo dose-response, rhaB-lacZ fusion activated by RhaS(163-278) (RhaS-DBD); assay type: cell-based, E. coli
T1 construct: expressed in transfected cells; host or cells: E. coli SME3635 (rhaB-lacZ, pHG165 expressing RhaS(163-278))
Source text: For dose-response studies, a rhaB-lacZ reporter strain was designed that allowed IPTG induction of RhaS or RhaS(163-278) expression from pHG165 (and thus rhaB-lacZ expression). The strain was constructed by introducing malP::lacIq into SME3000 via phage P1vir-mediated generalized transduction. First, SME3000 was transduced with Δcrp-3 zhc-511::Tn10 from SME1403, selecting for tetracycline resistance and screening for sorbitol deficiency (indicating Δcrp) using MacConkey sorbitol. SME3000 Acrp-3 zhc-511::Tn10 was transduced with crp^+ malP::lacI^q from SG22166, selecting for growth on minimal sorbitol and screening for maltose deficiency (indicating malP::lacI^q) using MacConkey maltose. […]
The top hit identified in the screen was 1-ethyl-4-(nitromethyl)-3-quinolin-2-yl-4H-quinoline, Compound 2. […] Lysis/ONPG buffer (50 μL, as in Primary Screen) was added to each well and the plate was immediately placed into a PowerWave XS plate reader (BioTek Instruments, Inc., Winooski, Vt.), set to read the OD420 of each well every 15 min for 4 hr. […] Due to differences in kinetics of lacZ reporter expression, the rhaB-lacZ strains were analyzed at 4 hours and the hts-lacZ strain was analyzed at 1 hr. Percent activity was calculated for each condition as described above, using the single time point with appropriate OD420 levels for each strain. […]

[2] = tested on: E. coli strains used for in vivo assays; assay: E. coli growth curves; assay type: cell-based; details: for impact on growth of the cells: minimal medium
Experimental: Strains SME3634 and SME3359 were grown overnight (˜16 hr) at 37° C. in MOPS-buffered minimal medium. Overnight grown cultures were diluted into the same medium plus rhamnose to an O.D600 of 0.1, and IPTG was added. 1 mL aliquots of the cultures were added to wells of a 24-well plate, with the addition of either 44 μM Compound 1 (dissolved in 100% DMSO) or an equal volume of 100% DMSO. Growth was monitored at 20 min intervals for approximately 8 hr. at 37° C. with continuous shaking in a PowerWave XS plate reader (BioTek Instruments, Inc., Winooski, Vt.). Error bars represent the standard error of the mean.
To test the impact of SE-1 on growth of the bacterial strains used for in vivo dose-response assays (SME4382 and SME3359), we compared growth rates in the presence and absence of SE-1, without addition of rhamnose. Briefly, the cells were grown at 37° C. with shaking in MOPS-buffered minimal medium with glycerol and plus 6.5 mM IPTG, in 24-well plates, with or without: SE-1 (44 uM SE-1, 0.3% DMSO), or DMSO (0.3%) in a PowerWave XS plate reader equipped with KC^4 data analysis software (BioTek Instruments).

[3] = tested on: Shigella invasion of HeLa cells; assay: Shigella invasion of HeLa cells; assay type: cell-based, Shigella flexneri strain M90T; details: bacteria grown with compound before addition to cells
Experimental: We assayed the effect of Compound 1 on the interaction of Shigella with cultured human epithelial cells. Shigella flexneri strain M90T was grown to maximize type III secretion system [Shigella] expression. Shigella was assayed for invasion of HeLa cells. The bacterial cells were grown in the presence of Compound 1 prior to addition to tissue culture wells. Invasion assays involved, briefly, incubation of Shigella cells in tissue culture wells, washing to remove non-adherent bacteria, addition of gentamycin to kill bacterial cells that had not invaded the epithelial cells, trypsin treatment to dislodge epithelial cells, serial dilutions and plating on LB to enumerate bacterial colonies

T1 sequence (P09377 163-278): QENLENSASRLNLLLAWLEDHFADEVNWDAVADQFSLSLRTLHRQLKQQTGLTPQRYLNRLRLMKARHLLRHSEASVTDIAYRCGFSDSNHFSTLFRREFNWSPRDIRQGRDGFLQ

CCCCN1C=C(c2ccc3ccccc3n2)C(C[N+](=O)[O-])c2ccccc21 (stereo not drawn) [Compound 1, 1-butyl-4-(nitromethyl)-3-quinolin-2-yl-4H-quinoline] was tested, and the “inhibition of RhaS(163-278)-activated expression” value ([1]; RhaS-DBD) was “fully inhibit expression”, the IC50 ([1]; RhaS-DBD (SME3635), read-out: IC50, rhaB-lacZ activation by RhaS(163-278)) was roughly 10 µM and the “effect on growth of either strain” value ([2]; 44 uM, SME4382 and SME3359, 8 h at 37° C.) was “no detectable effect”. The “impact on growth of the cells” value ([2]; 44 μM, strains with RhaS-activated and LacI-repressed fusions (SME3634, SME3359)) was “no impact”, the “impact on growth of the cells” value ([2]; strains with VirF/Rns-activated and LacI-repressed reporter fusions) was “no impact” and the “ability of Shigella to invade human epithelial cells” value [3] was “reduced”.
